The values that follow come from patent publication US20100113268A1, “SYNERGISTIC ACTIVE COMPOUND COMBINATIONS” (priority 2006, published 2010).

Molecules are shown by their SMILES.

The test has as its system Meloidogyne incognita. Description: Meloidogyne incognita test (MELGIN), gall formation on lettuce roots in soil. Format: in vivo. The note with it: single active compound, 100% = no galls, 0% = galls as untreated control. The protocol:
Meloidogyne incognita Test (MELGIN)
To produce a suitable preparation of active compound, 1 part by weight of active compound is mixed with the stated amounts of solvent and emulsifier, and the concentrate is diluted with water to the desired concentration.
Vessels are filled with soil, solution of active compound, Meloidogyne incognita egg/larvae suspension and lettuce seeds. The lettuce seeds germinate and plants develop. On the roots, galls are formed.
After the desired period of time, the nematicidal action is determined in % by the formation of galls. 100% means that no galls have been found; 0% means that the number of galls on the treated plants corresponds to that of the untreated control.

On to `CNC(=O)O/N=C(\SC)C(=O)N(C)C` [Oxamyl, oxamyl], for which the “Kill in % after 21 d” value (0.125 ppm) worked out at 24%.

As to `O=[N+]([O-])/N=C1\NCCN1Cc1ccc(Cl)nc1` [Imidacloprid], the “Kill in % after 21 d” value (2 ppm) is given as 0%.

As for `CN/C(=N\[N+](=O)[O-])NCc1cnc(Cl)s1` [Clothianidin], the “Kill in % after 21 d” value (2 ppm) is reported as 0%.
